This is an account of results in ChEMBL document CHEMBL4190370, “Emerging New Targets for the Treatment of Resistant Fungal Infections” (J Med Chem, 2018).

In data set [1] the test system is Candida albicans. The data set is described as follows: Inhibition of Cch1 in Candida albicans isolate 16 assessed as potentiation of fluconazole-induced antifungal activity by measuring fractional inhibitory concentration index after 24 hrs by checkerboard assay.
The test system of data set [2] is Candida albicans. The experiment in a line: Inhibition of Cch1 in Candida albicans isolate 10 assessed as potentiation of fluconazole-induced antifungal activity by measuring fractional inhibitory concentration index after 24 hrs by checkerboard assay.
Data set [3] relates to Candida albicans. The data set is described as follows: Synergistic antimicrobial activity against Candida albicans Ca2323 isolate at MIC concentration after 24 hrs at 30 degC in presence of G884. In kind it is functional.
For data set [4], the system named is Saccharomyces cerevisiae. The experiment in a line: Synergistic antimicrobial activity against Saccharomyces cerevisiae S288c isolate at MIC concentration after 24 hrs at 30 degC in presence of G884. In kind it is functional.
Data set [5] is described as follows: Toxicity in ip dosed DBA/2 mouse infected with Candida albicans MY1055 administered bid for 2 days or qd for 4 days measured on day 4. In kind it is organism-based. Particulars: in vivo.
For data set [6], the system named is Candida albicans. The data set is described as follows: Synergistic antimicrobial activity against Candida albicans Ca2323 isolate at MIC concentration after 24 hrs at 30 degC in presence of G365. In kind it is functional.
For data set [7], the system named is Saccharomyces cerevisiae. The data set is described as follows: Synergistic antimicrobial activity against Saccharomyces cerevisiae S288c isolate at MIC concentration after 24 hrs at 30 degC in presence of G365. The class given is functional.
For data set [8], the system named is Candida albicans. The data set is described as follows: Antifungal activity against Candida albicans. In kind it is functional.
The test system of the next data set is Cryptococcus neoformans. The data set is described as follows: Antifungal activity against Cryptococcus neoformans H99 serotype A after 72 hrs by microdilution method. The class given is functional, Cryptococcus neoformans var. grubii H99. Background: In broth dilution the organism is exposed to a series of concentrations in liquid medium.
The nature of data set [9]: Inhibition of Aspergillus fumigatus AGM1.

In brackets after ≈: the same amount, converted by molar mass.

Consider `CCOC(=O)C1=C(COCCN)NC(C)=C(C(=O)OC)C1c1ccccc1Cl` (stereo unspecified), for which the fractional inhibitory concentration index (FICI) in the data set with Candida albicans [1] and in the data set on Candida albicans [2] was 0.017 to 0.035 in each case.

As for `C=C1C2CC3[C@@H](C(C)C)[C@H](OC(=O)NCCCC)C[C@]3(C)CC2/C(C)=C\CC2[C@H](C)OC(=O)[C@@H](O)[C@@]12O` (stereo partly specified), the “fractional inhibitory concentration index (FICI)” value in the data set with Candida albicans [3], in the data set with Saccharomyces cerevisiae [4], in the data set on Candida albicans [6] and with Saccharomyces cerevisiae [7] was 0.25 - 0.313 in each case. Also, in [5], the LD50 at 4 days is > 300 mg/kg.

Consider `COC(=O)C1=C(C)NC(C)=C(C(=O)OC2CCCN(Cc3ccccc3)C2)C1c1cccc([N+](=O)[O-])c1` (stereo unspecified), for which the fractional inhibitory concentration index (FICI) with Candida albicans [1] and in the data set on Candida albicans [2] was 0.017 to 0.035 in each case.

For the molecule `COC(=O)C1=C(C)NC(C)=C(C(=O)OC)C1c1ccccc1[N+](=O)[O-]`, the fractional inhibitory concentration index (FICI) in the data set with Candida albicans [1] and in the data set on Candida albicans [2] was 0.017 to 0.035 each time.

As for `CC[C@@H](C)[C@@H](O)[C@H](C)C(=O)[C@H](C)/C=C(\C)C[C@H](C)C1OC(=O)[C@H]1C` (stereo partly specified), the lowest concentration to inhibit growth against Candida albicans [8] (MIC) was 64 mg/L (≈ 189 µM).

The molecule `N=C(N)NCCC[C@H](N)C(=O)N[C@@H](/C=C/CP(=O)(O)O)C(=O)O` displayed an MIC against Candida albicans [8] of 0.35 mg/L (≈ 0.996 µM).

`CCOC(=O)c1ccccc1S(=O)(=O)NC(=O)Nc1nc(Br)cc(OC)n1` had an MIC90 against Candida albicans [8] of 0.72 mg/L (≈ 1.57 µM).

`C=CC[C@@H]1/C=C(\C)C[C@H](C)C[C@H](OC)[C@H]2O[C@@](O)(C(=O)C(=O)N3CCCC[C@H]3C(=O)O[C@H](/C(C)=C/[C@@H]3CC[C@@H](O)[C@H](OC)C3)[C@H](C)[C@@H](O)CC1=O)[C@H](C)C[C@@H]2OC` [TACROLIMUS ANHYDROUS] came in with an MIC against Cryptococcus neoformans of 0.01 mg/L (≈ 0.0124 µM).

Turning to `Cc1nc(/N=N/c2ccc(C(=O)O)cc2)c(COP(=O)(O)O)c(C=O)c1O`, the IC50 in data set [9] was 7.1 µM.

As to `Nc1ccc(O)c2c1C(=O)c1c(O)ccc(N)c1C2=O`, the Ki in data set [9] was found to be 300 µM.

With `Fc1ccc(C(c2ccc(F)cc2)N2CCN(C/C=C/c3ccccc3)CC2)cc1`, the fractional inhibitory concentration index (FICI) in the data set with Candida albicans [1] and in the data set with Candida albicans [2] was 0.017 to 0.035 in each case.

For the molecule `NC(Cc1cc(O)c(O)cc1O)C(=O)O` (stereo unspecified), the IC50 in data set [9] is 58 µM.

Regarding `C/C=C/C[C@@H](C)[C@@H](O)[C@H]1C(=O)N[C@@H](CC)C(=O)N(C)CC(=O)N(C)[C@@H](CC(C)C)C(=O)N[C@@H](C(C)C)C(=O)N(C)[C@@H](CC(C)C)C(=O)N[C@@H](C)C(=O)N[C@H](C)C(=O)N(C)[C@@H](CC(C)C)C(=O)N(C)[C@@H](CC(C)C)C(=O)N(C)[C@@H](C(C)C)C(=O)N1C` [CYCLOSPORINE], in the data set on Cryptococcus neoformans, the MIC turned out to be 0.39 mg/L (≈ 0.324 µM).

By LD50 is commonly meant the dose at which mortality reaches 50%. By MIC is commonly meant the lowest concentration that inhibits growth of the organism. Read a low MIC as greater potency. In general, MIC90 refers to the lowest concentration that inhibits either 90% of growth or 90% of the strains tested, depending on the study. A higher MIC90 goes with weaker potency. A word on the IC50: it is the concentration that inhibits the measured activity by half. High values mean weaker potency, low ones greater potency. By Ki is commonly meant a measure of affinity in units of concentration, obtained from inhibition or displacement. A higher Ki goes with weaker binding.
